Blank lines part the entries; values can stand above or below the compound they belong to.
Target: T1, human vasopressin V2 receptor subtype (Homo sapiens, UniProt P30518)
T1 construct: host or cells: CHO cells, stably transfected (pZeoSV vector)
Assay: Vasopressin binding in CHO cell membranes expressing human vasopressin V2 subtype receptors ([3H]arginine vasopressin radioligand binding)
Source text: Chinese Hamster Ovary (CHO) cells stably transfected with the human V2 subtype receptors were obtained from M. Thibonnier, Case Western Reserve University School of Medicine, Cleveland, Ohio.
CHO cells transfected with the human vasopressin V2 subtype receptors obtained from M. Thibonnier (pZeoSV vector) are allowed to grow to confluency (approx. >90%) in T-150 flasks under sterile conditions, in a cell culture medium consisting of F-12 Nutrient Mixture (HAM) with L-glutamine (Gibco Cat. #11765-054) containing 15 mM HEPES (Gibco Cat. #15630-080), 1% antibiotic/antimycotic (add 5 mL 100×, Gibco Cat. #15240-062 per 500 mL F-12), 250 μg/mL Zeocin (add 1.25 mL of 100 mg/mL Invitrogen R-250-01 per 500 mL F-12) and 10% Fetal Bovine Serum (Qualified, heat inactivated, Gibco Cat. #16140-063). The medium is removed by aspiration and the cells washed with 10 mL of Hank's Balanced Salt solution (Gibco Cat. #14175-095). The salt solution is removed by aspiration and the cells trypsinized with 5 mL of trypsin-EDTA (0.05% trypsin, 0.53 mM EDTA-4Na, Gibco Cat. #25300-070) for 1 min. The trypsin is removed by aspiration and the cells dislodged by tapping. Cell Culture medium (e.g. 30 mL for 1:30 split) is immediately added and mixed well to inactivate trypsin. 1 mL of detached cells is added to new culture flasks containing fresh Cell Culture medium (e.g. into 25 mL per T-150 flask), and mixed gently. The cells are incubated at 37° C. in 5% CO2. The medium is changed at 3 to 4 day interval (or as appropriate). The cells grow to confluency (approx. >75%-95%) within 7-8 days. All steps are done under sterile conditions.
The cells are washed twice gently with Hank's Balanced Salt solution (e.g. use 10 mL per T-150 flask). The excess solution is removed and the cells bathed for 15-30 min. in an enzyme-free Cell Dissociation Buffer (e.g. use 8 mL Hank's Based, Gibco Cat. #13150-016 per T-150 flask) until cells are loosened. The contents are transferred to centrifuge tubes (50 mL) kept in an ice bath. All subsequent steps are done at 4° C. The tubes are centrifuged at 300×g for 15 min (1380 rpm on SORVAL, Model RT6000D, using the rotor for 50 mL tubes). The supernatant is discarded and the cells suspended in homogeneizing buffer(10 mM Tris-HCl containing 0.25 M sucrose and 1 mM EDTA, pH 7.4) ensuring that the volume of the buffer is about ten times the volume of the cell pellet. The cells are pooled into a centrifuge tube (50 mL) and homogenized with Polytron at setting 6 for 10 sec. The homogenate is transferred into a Potter-Elvjehm homogeneizer and homogenized with 3 strokes. The homogenate is centrifuged at 1500×g for 60 min at 4° C. (3100 rpm using SORVAL, model RT6000D, using the rotor for 50 mL tubes). The pellet is discarded. The supernatant is centrifuged at 100,000×g for 60 min. at 4° C. (Beckman L8-80M ultracentrifuge; spin at 37,500 rpm with rotor type 70 Ti for 50 mL tubes; 38,000 rpm with type 80 Ti for 15 mL tubes; or 35,800 rpm with rotor type 45Ti). The supernantant is discarded and the pellet suspended in 3 to 4 mL of Tris buffer (50 mM TRIS-HCl, pH 7.4). The protein content is estimated by the Bradford or Lowry method. The volume of the membrane suspension is adjusted with the membrane buffer (50 mM Tris-HCl containing 0.1% BSA and 0.1 mM PMSF) to give 3.0 mg/mL (or as appropriate) of protein. The membranes are aliquoted and stored at −70° C.
In wells of a 96-well format microtiter plate, is added 90, 110 or 130 μL (to make up a final volume of 200 μL) of assay buffer containing 50 mM of Tris-HCl (pH 7.4), […], 1 mg % aprotinin, 1 mg % leupeptin, 2 mg % 1,10-phenanthroline, 10 mg % trypsin inhibitor, and 0.1 mM PMSF. The inhibitors are added on the day of the experiment. The components are mixed at room temperature, and then kept in ice bath following adjustment of the pH to 7.4. […]

- V2 % inhibition @ 100 nM: 10%
Compound: Cc1cc(C(=O)N2Cc3ccc(C(=O)N4CCN(C(C)C)CC4)n3Cc3ccccc32)ccc1C1=CCCCC1 [Example 25, {10-[4-(1-Cyclohex-1-en-1-yl)-3-methylbenzoyl]-1 0,11-dihydro-5H-pyrrolo[2,1-c][1,4]benzodiazepin-3-yl}(4-isopropyl-1-piperazinyl)methanone]

- V2 % inhibition @ 100 nM: 9%
Compound: Cc1cc(C(=O)N2Cc3ccc(C(=O)N4CCC[C@H]4CN4CCCC4)n3Cc3ccccc32)ccc1C1=CCCCC1 [Example 26, {10-[4-(1-Cyclohex-1-en-1-yl)-3-methylbenzoyl]-10,11-dihydro-5H-pyrrolo[2,1-c][1,4]benzodiazepin-3-yl}[(2S)-2-(1-pyrrolidinylmethyl)pyrrolidinyl]methanone]

- V2 % inhibition @ 100 nM: 10%
Compound: Cc1cc(C(=O)N2Cc3ccc(C(=O)N4CC[C@@H](N(C)C)C4)n3Cc3ccccc32)ccc1C1=CCCCC1 [Example 27, {10-[4-(1-Cyclohex-1-en-1-yl)-3-methylbenzoyl]-10,11-dihydro-5H-pyrrolo[2,1-c][1,4]benzodiazepin-3-yl}[(3R)-3-(dimethylamino)pyrrolidinyl]methanone]

Continued, compound first:

Compound: Cc1cc(C(=O)N2Cc3ccc(C(=O)N4CCN(CCN(C)C)CC4)n3Cc3ccccc32)ccc1C1=CCCCC1 [Example 22, {10-[4-(1-Cyclohex-1-en-1-yl)-3-methylbenzoyl]-10,11-dihydro-5H-pyrrolo[2,1-c][1,4]benzodiazepin-3-yl}{4-[2-(dimethylamino)ethyl]-1-piperazinyl}methanone]
- V2 % inhibition @ 100 nM: 13%

Compound: Cc1cc(C(=O)N2Cc3ccc(C(=O)N4CCN(CCN5CCOCC5)CC4)n3Cc3ccccc32)ccc1C1=CCCCC1 [Example 23, {10-[4-(1-Cyclohex-1-en-1-yl)-3-methylbenzoyl]-10,11-dihydro-5H-pyrrolo[2,1-c][1,4]benzodiazepin-3-yl}{4-[2-(4-morpholinyl)ethyl]-1-piperazinyl}methanone]
- V2 % inhibition @ 100 nM: 18%

Compound: C=CCN1CCN(C(=O)c2ccc3n2Cc2ccccc2N(C(=O)c2ccc(C4=CCCCC4)c(C)c2)C3)CC1 [Example 24, (4-Allyl-1-piperazinyl){10-[4-(1-cyclohex-1-en-1-yl)-3-methylbenzoyl]-10,11-dihydro-5H-pyrrolo[2,1-c][1,4]benzodiazepin-3-yl}methanone]
- V2 % inhibition @ 100 nM: 12%

Compound: {10-[4-(1-Cyclohexen-1-yl)-3-methylbenzoyl]-10,11-dihydro-5H-pyrrolo[2,1-c][1,4]benzodiazepin-3-yl}(4-methyl-piperazin-1-yl)methanone [Example 12]
- IC50 (value in parentheses): > 1000 nM
